Patent US5965575A, “N-aryl piperidine compounds as 5HT1B antagonists” (Adir Et Compagnie, priority 1997, dated 1999)

Columns and labels:
5-HT1A receptor = molecular target: T1, 5-HT1A receptor (Rattus norvegicus, UniProt P19327); experiment: 5-HT1A binding
T1 construct: from tissue
T1 sequence (P19327 1-422): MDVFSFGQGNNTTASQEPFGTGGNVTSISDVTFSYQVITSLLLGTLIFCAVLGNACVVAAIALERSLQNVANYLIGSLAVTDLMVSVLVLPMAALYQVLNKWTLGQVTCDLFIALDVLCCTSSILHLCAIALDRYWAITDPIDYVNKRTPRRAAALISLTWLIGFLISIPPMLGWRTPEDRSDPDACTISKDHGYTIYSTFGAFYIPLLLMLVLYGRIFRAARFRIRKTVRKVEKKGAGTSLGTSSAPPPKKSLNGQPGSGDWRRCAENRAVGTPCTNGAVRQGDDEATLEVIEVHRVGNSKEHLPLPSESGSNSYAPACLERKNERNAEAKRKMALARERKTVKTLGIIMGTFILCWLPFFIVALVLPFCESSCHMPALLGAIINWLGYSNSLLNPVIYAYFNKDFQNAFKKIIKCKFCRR
Description: The 5-HT1A receptor binding studies were carried out according to methods known and described in the literature (cf. S. J. Peroutka, J. Neurochem, 1986, 47, 529-40, M. J. Millan, J. Pharmacol. Exp. Ther., 1994, 268, 337-52). The results are also expressed as pKi.

5-HT1B receptor = molecular target: T2, 5-HT1B receptor (Cavia porcellus, UniProt O08892); experiment: 5-HT1B binding ([3H]-GR 125743, guinea-pig striatal membranes); conditions: [3H]-GR 125743 1 nM, guinea-pig striata membranes
T2 construct: After dissection of guinea-pig brains, the extracted striata are frozen; from tissue; host or cells: guinea-pig striatum membranes
T2 sequence (O08892 whole entry): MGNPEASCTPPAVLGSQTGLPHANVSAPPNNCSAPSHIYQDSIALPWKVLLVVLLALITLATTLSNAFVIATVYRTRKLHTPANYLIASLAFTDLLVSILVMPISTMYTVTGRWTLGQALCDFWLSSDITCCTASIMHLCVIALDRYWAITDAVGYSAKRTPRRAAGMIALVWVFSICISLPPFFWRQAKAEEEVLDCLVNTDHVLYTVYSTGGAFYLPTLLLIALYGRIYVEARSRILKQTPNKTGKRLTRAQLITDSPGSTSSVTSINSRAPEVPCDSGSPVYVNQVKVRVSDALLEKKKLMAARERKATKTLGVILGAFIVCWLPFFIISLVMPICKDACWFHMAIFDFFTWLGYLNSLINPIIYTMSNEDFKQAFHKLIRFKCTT
Description: After dissection of guinea-pig brains, the extracted striata are frozen and then homogenised in 20 volumes (weight/volume) of 50 mM tris-HCl (pH 7.7 at room temperature) containing 4 mM CaCl2 and 0.1% ascorbic acid, and centrifuged at 48,000 g for 25 minutes at 4° C. The supernatant is separated and the precipitate is resuspended in the same volume of buffer before being incubated at 37° C. for 15 minutes in order to extract the endogenous serotonin. Finally, the suspension is centrifuged at 48,000 g for 25 minutes at 4° C. and the precipitate is resuspended in 80 volumes of buffer containing 10 μM pargyline.
The binding studies ([^3 H]-GR 125743) are carried out in triplicate in the following buffer: 50 mM tris-HCl (pH 7.7 at room temperature) containing 4 mM CaCl2, 0.1% ascorbic acid and 10 μM pargyline. […]
The data are analysed by non-linear regression using the PRISM programme (Graphpad Software Inc., San Diego, Calif.) in order to determine the Kd values (dissociation constant of the radioligand), the Bmax values (maximum number of sites) for the saturation experiments and the IC50 values (50% inhibiting concentration) and the Hill number for the competition experiments. The inhibition constant (Ki) is calculated according to the Cheng-Prussof equation : Ki =IC50 /1+L/Kd wherein L represents the concentration of the radioligand. The results are expressed as pKi =-log Ki.

5-HT1B = experiment: Hypothermia test in the guinea-pig (antagonism of GR46611); type: in vivo; conditions: for ΔT ° C. (90 min) / ΔT ° C. (120 min): mean ± s.e.m.
Description: Using the hypothermia test on the guinea-pig (M. Stingle et al., J. of Psychopharmacology, 1994, 8, 14) it was possible to determine the agonist or antagonist nature of the products of the invention.
The guinea-pigs are kept in batteries of three, with free access to food and water, for one week before entering the study. One hour before each experiment, the guinea-pigs are placed in individual cages with free access to water. They are put back in their respective batteries at the end of each experiment. The temperature measurements are carried out using a digital thermometer and a rectal probe. Each guinea-pig is weighed, its base body temperature is taken and then the compound of the present invention to be evaluated is injected i.p. or p.o.
In the case of an agonist, the body temperature of each guinea-pig is taken every 30 minutes for 2 hours.
In the case of an antagonist, 15 minutes after injection each guinea-pig is injected again i.p. with the prototype agonist 5-HT1B : GR46611 (5 mg/kg/ml). The temperature is then taken every 30 minutes for 2 hours.
The criterion used for evaluation is the difference in temperature at a given time in relation to the base temperature. For each dose of product and for each time (t30, t60, t90, t120) the mean and the standard error of the mean are calculated.

[1] = test system: extracellular concentration of serotonin; experiment: Microdialysis experiment in rats (frontal cortex); type: in vivo; conditions: rat frontal cortex dialysate, subcutaneous route, compound alone
Description: Those tests, carried out in the frontal cortex, make it possible in the case where the products cause an increase in the release of serotonin to envisage their use for depression, impulsive disorders and obesity. If they cause a decrease in the release of serotonin they will be beneficial in the treatment of anxiety, panic attacks, sleep problems, cognitive problems and drug abuse. Finally, if they produce an increase in dopamine and/or noradrenalin, they will be beneficial in the treatment of schizophrenia and, as above, in the treatment of depression and cognitive problems.
The rats are anaesthetised with pentobarbital (60 mg/kg i.p.). […]
Simultaneous quantification of dopamine, norepinephrine and serotonin is carried out as follows: 20 μl of dialysis samples are diluted with 20 μl of mobile phase (NaH2 PO4 : 75 mM, EDTA: 20 μM, sodium dodecanesulphonate: 1 mM, methanol: 17.5%, triethylamine: 0.01%, pH: 5.70) and 33 μl are analysed by HPLC with an inverse phase column (Hypersil ODS 5 μm, C18, 150×4.6 mm, Thermo Separation Products, Les Ulis, France) thermo-statically controlled at 45° C. and quantified by way of a coulometric detector. […] The quantities of neurotransmitters are expressed as a function of the mean of the three base values. […]

[2] = 0.04 mg/kg i.p., then GR46611 5 mg/kg
[3] = 0.16 mg/kg i.p., then GR46611 5 mg/kg
[4] = injection 1 Vehicle i.p., injection 2 GR46611 5 mg/kg

c1ccc2c(c1)CC2CNC1CCN(c2cccc3c2OCCO3)CC1 (stereo not shown) [Example 4, N-(benzocyclobuten-1-ylmethyl)-N-[1-(2,3-dihydro[1,4]benzodioxin-5-yl)piperid-4-yl]amine]
Ki (5-HT1A receptor): 3160 nM

c1cc2c(c(N3CCC(NCCC45CC6CC(CC(C6)C4)C5)CC3)c1)OCCO2 [Example 9, N-[2-(adamant-1-yl)ethyl]-N-[1-(2,3-dihydro[1,4]benzodioxin-5-yl)-piperid-4-yl]amine]
Ki (5-HT1B receptor): 10 nM

COc1cc2c(cc1OC)-c1cc(CCNC3CCN(c4cccc5c4OCCO5)CC3)cn1CC2 [Example 11, 5,6-dihydro-8,9-dimethoxy-2-{2-{[1-(2,3-dihydro[1,4]benzodioxin-5-yl)-piperid-4-ylamino]ethyl}}pyrrolo[2,1-a]isoquinoline]
ΔT ° C. (90 min) (5-HT1B; [2]): -1.10 ± 0.36 °C | ΔT ° C. (120 min) (5-HT1B; [2]): -1.43 ± 0.24 °C | ΔT ° C. (90 min) (5-HT1B; [3]): -0.57 ± 0.17 °C | ΔT ° C. (120 min) (5-HT1B; [3]): -0.67 ± 0.28 °C | agonist or antagonist nature (5-HT1B; hypothermia test, i.p. route): acts as an antagonist

COc1ccc(CNC(=O)/C=C/c2ccc3[nH]cc(CCN(C)C)c3c2)cc1 [GR46611, reference compound]
ΔT ° C. (90 min) (5-HT1B; [4]): -1.05 ± 0.13 °C | ΔT ° C. (120 min) (5-HT1B; [4]): -1.40 ± 0.36 °C | extracellular concentration of serotonin [1]: decrease in the extracellular concentration of serotonin
